# Key:
# [1] = system: A549 NSCLC cell migration and invasion; settings: A549, crizotinib+β-lap+DIC
# Procedure: FIG. 4A. Representative images of A549 NSCLC cell migration at indicated treatment conditions at 16 h post-treatment using a Boyden chamber migration assay: 2 h pre-treatment with criz followed by additional 2 h with criz±β-lap.
# FIG. 4B. Bar graph showing quantification of cell migration expressed as a percent of control (vehicle).
# FIG. 4C. Representative images of A549 NSCLC cell invasion at indicated treatment conditions at 16 h post-treatment using a matrigel-coated Boyden chamber invasion assay: 2 h pre-treatment with criz followed by additional 2 h with criz±β-lap.
# FIG. 4D. Bar graph showing quantification of cell invasion expressed as a percent of control (vehicle).
# Capan2 shMET = experiment: long-term survival (DNA assay), Capan2 shSCR versus shMET; format: cell-based; settings: DIC 50 μM
# From the text: FIG. 1-1R. Graph showing relative long-term survival in isogenic Capan2 shSCR versus shMET cell lines using the DNA assay.
# Dicoumarol (DIC) is a well-established NQO1 inhibitor (Asher, et al., Biochemistry 2006, 45(20), 6372-8; Motea, et al., Clin Cancer Res 2019, 25(8), 2601-2609; Huang, et al., Cancer Cell 2016, 30(6), 940-952).
# [2] = system: cellular hydrogen peroxide (H2O2) levels in A549 cells; experiment: ROS-Glo H2O2 Assay; format: cell-based; settings: A549, DIC 50 μM
# Procedure: FIG. 2-1A. […] Growth media was then replaced with fresh media containing β-lap (3 μM) alone, criz alone (1 μM) or combination±DIC (50 μM) and collected at 15 and 120 min to measure H2O2 production using the ROS-Glo™ H2O2 Assay from Promega (Madison, WI). The assay was performed in three biological replicates.
# Next, we sought to investigate the mechanistic role of cMET in promoting resistance to ROS-induced DNA lesions caused by the futile redox cycling of β-lap with NQO1. […] In response to H2O2 stimulation, cMET can translocate into the nucleus where it interacts with PARP1 for activation to enhance the repair of ROS-induced DNA damage. […] Next we performed PARP1 immunoprecipitation studies to determine whether it associates with activated cMET in the nucleus following treatment with β-lap at increasing doses.
# [3] = system: IMR90 lung fibroblast cell line; experiment: long-term cell survival assay, IMR90; format: cell-based, human; settings: IMR90, no NQO1, high CAT; criz ± sub-lethal β-lap (3 μM)
# Procedure: FIG. 1D. […] LC50 values were calculated from long-term cell survival graphs using GraphPad PRISM; ND denotes Not Determined even at the highest concentration presented. All error bars represent the mean±SEM. **** p<0.0001, *** p<0.001, ** p<0.01, *p<0.05.
# [4] = system: Capan2-mCherry microtumor; experiment: 3D spheroid co-culture, tumor cells; format: cell-based; settings: 3D co-culture with NIH3T3-GFP; crizotinib 2 μM, β-lap 2 μM or 4 μM
# Procedure: FIG. 5D. Top Inset: Representative brightfield, green (NIH3T3-GFP), red (Capan2-mCherry), and merged images of 3D spheroid co-culture of Capan2-mCherry (cancer cells) and NIH3T3-GFP (normal cells). 3D co-cultures were exposed to specified treatment conditions and imaged at indicated times to monitor drug response. Scale bar=250 μm. Untreated NIH3T3-GFP 3D spheroid culture by itself (imaged at indicated times) was added for reference.
# FIG. 5E. Bar graph of Capan2-mCherry 3D spheroid microtumor growth at specified treatment conditions over time. Asterisk (*) indicates synergistic response in the combination treatment compared to the corresponding individual treatments alone.
# Next, we investigated the tumor-selectivity and efficacy of our combination treatment strategy using 3D co-culture spheroids of Capan2 PDAC (permanently labelled with mCherry) and NIH3T3 mouse embryonic fibroblast cells (permanently labelled with GFP) to mimic physiological cell-cell and cell-environment interactions during treatment. […] These are consistent with patient data comparing associated normal tissues versus tumors in pancreas (FIGS. 1-1B, 1-1G) and lungs (FIGS. 1A, 1-1B, 1-1H). Using confocal fluorescent microscopy, we noted that NIH3T3-GFP fibroblast cells were surrounding the Capan2-mCherry PDAC cells in the 3D spheroid co-culture (FIG. 5D).
# [5] = in vivo; cited from earlier work
SMILES,"migration and invasion, DIC added to the combination treatment [1]",effect of added DIC on β-lap sensitivity (Capan2 shMET),"H2O2 formation, DIC added to β-lap+criz [2]",long-term cell survival (sensitivity) [3],Capan2-mCherry microtumor growth [4],MTD [5]
"O=c1oc2ccccc2c(O)c1Cc1c(O)c2ccccc2oc1=O [DIC, Dicoumarol]",restored the ability of A549 to migrate and invade,rescued,prevented H2O2 formation,,,
C[C@@H](Oc1cc(-c2cnn(C3CCNCC3)c2)cnc1N)c1c(Cl)ccc(F)c1Cl [crizotinib],,,,remained resistant,very little effect on tumor growth,250 mg twice daily
